Results as given in ChEMBL document CHEMBL1201862, “PubChem BioAssay data set” (2004).
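These data come from cells grown in 96-well plates and exposed to compound for 48 hours at five concentrations. The concentration for 50% growth inhibition is given as GI50.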 Activity calls are given as the source filed them. Rule as the data show it: active = GI50 up to about 1.1 µM and inactive = higher.

Tests used:
Assay in all cases: NCI anticancer screen, dose series, 48 h
[1] = tested on: 786-0
[2] = tested on: A498
[3] = tested on: ACHN
[4] = tested on: DLD-1
[5] = tested on: HCT-15
[6] = tested on: IGROV-1
[7] = tested on: M14
[8] = tested on: MOLT-4
[9] = tested on: Malme-3M
[10] = tested on: NCI-H460
[11] = tested on: NCI-H522
[12] = tested on: RXF 393
[13] = tested on: SK-MEL-5
[14] = tested on: SNB-19
[15] = tested on: UACC-257
[16] = tested on: BT-549
[17] = tested on: Hs-578T
[18] = tested on: MDA-MB-231
[19] = tested on: MDA-MB-435
[20] = tested on: T47D

Row | Structure (SMILES) | GI50 [1] | GI50 [2] | GI50 [3] | GI50 [4] | GI50 [5] [µM] | GI50 [6] | GI50 [7] | GI50 [8] | GI50 [9] | GI50 [10] | GI50 [11] | GI50 [12] | GI50 [13] | GI50 [14] | GI50 [15] | GI50 [16] | GI50 [17] | GI50 [18] | GI50 [19] | GI50 [20]
1 | COc1ccc2[nH]c3c(c2c1)[C@H](c1ccccc1)C[C@@H]1C(=O)N(c2ccccc2)C(=O)[C@H]31 | 17.5 µM (inactive) | 21.4 µM (inactive) | 22.1 µM (inactive) | 59.7 µM (inactive) | 41.7 | 26.9 µM (inactive) | 42.3 µM (inactive) | 15.1 µM (inactive) | 45.5 µM (inactive) | 22.4 µM (inactive) | 31.3 µM (inactive) | 16 µM (inactive) | 72.9 µM (inactive) | 29.2 µM (inactive) | > 100 µM (inactive) |  |  |  |  | 
2 | CN(C)/C=N/c1nc2ncn(CCOC(=O)c3ccccc3)c2c(=O)[nH]1 | > 100 µM (inactive) | > 100 µM (inactive) | > 100 µM (inactive) | > 100 µM (inactive) | > 100 | > 100 µM (inactive) | > 100 µM (inactive) |  | > 100 µM (inactive) | > 100 µM (inactive) | > 100 µM (inactive) | > 100 µM (inactive) | > 100 µM (inactive) |  | > 100 µM (inactive) |  |  |  |  | 
3 | N#CC(C#N)=c1[nH]c2cccc3c2-c2c(cccc2c3=C(C#N)C#N)[nH]1 | > 100 µM (inactive) | > 100 µM (inactive) |  | > 100 µM (inactive) | > 100 | > 100 µM (inactive) | > 100 µM (inactive) | > 100 µM (inactive) | > 100 µM (inactive) | > 100 µM (inactive) | > 100 µM (inactive) | 79.6 µM (inactive) | > 100 µM (inactive) | > 100 µM (inactive) | > 100 µM (inactive) |  |  |  |  | 
4 | Cn1c(=O)nc2n(-c3cccc(F)c3)c3ccccc3nc-2c1=O | 42 µM (inactive) | 39.9 µM (inactive) | 8 µM (inactive) | 25.3 µM (inactive) | 16.6 | 26.8 µM (inactive) | 18.7 µM (inactive) | 23.1 µM (inactive) | 14.4 µM (inactive) | 11.6 µM (inactive) | 16.6 µM (inactive) | 67.9 µM (inactive) | 14.2 µM (inactive) | 21.9 µM (inactive) | 12.8 µM (inactive) |  |  |  |  | 
5 | Brc1ccc(N2C[N+](c3ccc(Br)cc3)=NC(c3ccccc3)=N2)cc1 | 16 µM (inactive) | 18.3 µM (inactive) | 13.6 µM (inactive) | 12.6 µM (inactive) | 17.8 | 14.7 µM (inactive) | 13.4 µM (inactive) | 14.2 µM (inactive) | 16.7 µM (inactive) | 13.6 µM (inactive) | 19.6 µM (inactive) | 22.6 µM (inactive) | 16 µM (inactive) | 17.3 µM (inactive) | 17.5 µM (inactive) |  |  |  |  | 
6 | CC1CC[C@@]23CCC4(C)[C@@](C=CC5[C@@]6(C)CCC(=O)C(C)(C)C6CC[C@]54C)(OC2=O)[C@@H]3[C@H]1C (stereo partly specified) | 24.3 µM (inactive) | 20.6 µM (inactive) | 12 µM (inactive) | 19.3 µM (inactive) |  | 21.1 µM (inactive) | 21.7 µM (inactive) | 7.29 µM (inactive) | 20.9 µM (inactive) | 13.2 µM (inactive) | 11 µM (inactive) | 14.1 µM (inactive) | 4.84 µM (inactive) | 29.8 µM (inactive) | 6.59 µM (inactive) |  |  |  |  | 
7 | CC1C=C(CCCCCCCCCCCC[C@@H](O)[C@@H]2CC[C@@H]([C@@H]3CC[C@@H](C(O)CCCCCCCCCCCCC4=C[C@H](C)OC4=O)O3)O2)C(=O)O1 (stereo partly specified) | > 100 µM (inactive) | 75.7 µM (inactive) | > 100 µM (inactive) | > 100 µM (inactive) | 57.5 | > 71.1 µM (inactive) | > 100 µM (inactive) | 11.6 µM (inactive) | > 91.2 µM (inactive) | 0.881 µM (active) | 1.28 µM (inactive) | > 96.8 µM (inactive) | 0.0783 µM (active) | > 42.5 µM (inactive) | 0.387 µM (active) |  |  |  |  | 
8 | CCOC(=O)c1oc2ccc([N+](=O)[O-])c3c2c1CCC3 | 25.6 µM (inactive) | 32.7 µM (inactive) | 58.3 µM (inactive) | > 100 µM (inactive) | 97.9 | 57.9 µM (inactive) | > 86.3 µM (inactive) | > 100 µM (inactive) | > 63.4 µM (inactive) | > 100 µM (inactive) | 35.2 µM (inactive) | 26 µM (inactive) | 69.7 µM (inactive) | 34.7 µM (inactive) | > 82 µM (inactive) | 46.5 µM (inactive) | 29.2 µM (inactive) | 36.5 µM (inactive) | > 39.3 µM (inactive) | > 31.6 µM (inactive)
9 | CC(=O)NC(C=O)C(O[C@H](C)C(=O)NC(C)C(=O)NC(CCC(N)=O)C(=O)OCc1ccccc1)C(O)C(O)COC(=O)CCNc1c2ccccc2nc2cccc([N+](=O)[O-])c12 (stereo partly specified) | 4.56 µM (inactive) | > 100 µM (inactive) | 2.94 µM (inactive) | 3.41 µM (inactive) | 11.4 | > 100 µM (inactive) | 1.9 µM (inactive) | 3.57 µM (inactive) | 2.15 µM (inactive) | 1.73 µM (inactive) | 1.62 µM (inactive) | 3.96 µM (inactive) | > 100 µM (inactive) | 4.49 µM (inactive) | 7.46 µM (inactive) |  |  |  |  | 
10 | O=C(c1ccc(Cl)cc1Cl)C1[C@H]2C(=O)N(c3ccc(Cc4ccc(N5C(=O)[C@@H]6ON(c7ccccc7)C(C(=O)c7ccc(Cl)cc7Cl)[C@@H]6C5=O)cc4)cc3)C(=O)[C@H]2ON1c1ccccc1 (stereo partly specified) | > 50 µM (inactive) | > 50 µM (inactive) | > 50 µM (inactive) | > 50 µM (inactive) | > 50 | > 50 µM (inactive) | > 50 µM (inactive) | > 50 µM (inactive) | > 50 µM (inactive) | > 50 µM (inactive) | > 50 µM (inactive) | > 50 µM (inactive) | > 50 µM (inactive) | > 50 µM (inactive) | > 50 µM (inactive) |  |  |  |  | 
11 | Cc1nnc(N/N=C2/C(=O)Nc3c(Cl)cc(Cl)cc32)n1N | > 100 µM (inactive) | > 100 µM (inactive) | > 100 µM (inactive) | > 100 µM (inactive) | > 100 | > 100 µM (inactive) | > 100 µM (inactive) | 44.8 µM (inactive) | > 100 µM (inactive) | > 100 µM (inactive) | 34.2 µM (inactive) | 59.2 µM (inactive) |  | > 100 µM (inactive) | > 100 µM (inactive) |  |  |  |  | 
12 | C=C1C(=O)O[C@@H]2C[C@@H](C)[C@@H]3C=CC(=O)[C@@]3(C)[C@@H](OC(=O)CC(=O)O[C@H]3[C@@H]4C(=C)C(=O)O[C@@H]4C[C@@H](C)[C@@H]4C=CC(=O)[C@]43C)[C@H]12 | 0.0199 µM (active) | 0.213 µM (active) | 0.03 µM (active) | < 0.01 µM (active) | 0.0309 | 0.173 µM (active) | 0.0235 µM (active) | 0.0153 µM (active) | 0.0174 µM (active) | 0.161 µM (active) | < 0.01 µM (active) | < 0.0112 µM (active) | 0.0869 µM (active) | 0.548 µM (active) | 0.0252 µM (active) | 0.0386 µM (active) | 0.167 µM (active) | 0.0552 µM (active) | 0.0356 µM (active) | 0.179 µM (active)
13 | COc1ccc(C2c3cc(OC)c(OC)cc3C(Cc3ccc([N+](=O)[O-])cc3)C2c2ccc([N+](=O)[O-])cc2)cc1OC (stereo unspecified) | > 100 µM (inactive) | > 100 µM (inactive) | > 100 µM (inactive) | > 100 µM (inactive) | > 100 | > 100 µM (inactive) | > 100 µM (inactive) | > 100 µM (inactive) | > 100 µM (inactive) | > 100 µM (inactive) | 51.3 µM (inactive) | 27.7 µM (inactive) | > 100 µM (inactive) | > 100 µM (inactive) | > 100 µM (inactive) |  |  |  |  | 
14 | CN1Cc2c(nc(-c3ccc(Br)cc3)c[n+]2[O-])N(C)C1 | > 100 µM (inactive) | > 100 µM (inactive) | > 100 µM (inactive) | > 100 µM (inactive) |  | > 100 µM (inactive) | > 100 µM (inactive) | > 100 µM (inactive) | > 100 µM (inactive) | > 100 µM (inactive) | > 100 µM (inactive) | > 100 µM (inactive) | > 100 µM (inactive) | > 100 µM (inactive) | > 100 µM (inactive) |  |  |  |  | 
15 | Sc1ncnc2nc[nH]c12 [MERCAPTOPURINE ANHYDROUS] | 2.03 µM (inactive) | 58.7 µM (inactive) | 6.27 µM (inactive) | 2.08 µM (inactive) | 4.57 | 9.48 µM (inactive) | 0.675 µM (active) | 1.61 µM (inactive) | 3.66 µM (inactive) | 5.53 µM (inactive) | 1.62 µM (inactive) | 29.5 µM (inactive) | 8.36 µM (inactive) | 128 µM (inactive) | 14.4 µM (inactive) |  | 14.2 µM (inactive) | 24.4 µM (inactive) | 1.44 µM (inactive) | 3.55 µM (inactive)
16 | CN1C(=O)CC(CC(=O)C2CCCCC2=O)CC1=O (stereo unspecified) | > 100 µM (inactive) | > 100 µM (inactive) | > 100 µM (inactive) | > 100 µM (inactive) |  | > 100 µM (inactive) | > 100 µM (inactive) | > 100 µM (inactive) | > 100 µM (inactive) | > 100 µM (inactive) | > 100 µM (inactive) | > 100 µM (inactive) |  | > 100 µM (inactive) | > 100 µM (inactive) |  |  |  |  | 
